Experimental findings from patent publication US20220167645A1, “METHODS OF IMPROVING FISH FEED CONVERSION RATE AND SURVIVAL” (AQUINOVO LTD., priority 2019, published 2022) are described below.

Numbered stars: 1 amine (or outer) side, 2 acyl side, 3 side chain; on linkers, the order of the positions; unused ones are H or OH. Square brackets hold non-standard residues; d marks the D form. Suc = O=C(CCC(=O)[*:2])[*:1]; NMeV = CN[C@H](C(=O)O)C(C)C; βAla = NCCC(=O)O

Series [1] relates to Tilapia fish. Type of series: in vivo. The text has this: At the end of each of the experiments described in examples 2, 3 and 5 (#1, #2, #3), a sample of fish from each treatment group was sacrificed and dissected for measurements of internal parts as indicated in Table 9.
Series [2] deals with Tilapia fish. Briefly: Experiment #2: tilapia fed AN6-coated feed 60-150 dph (growth, biomass, FCR, intestine weight). Type of series: in vivo. Particulars: 5 mgAN6/Kg feed from 60 dph for 150 days.
Setting [3] is: 10 ppm AN6, experiments 2 & 3, vs control.

Turning to “Succ-Asp-Ser- D-Trp -N(Me)Val-βAla-Leu-Met-NH2 (Suc-DS[dW][NMeV][βAla]LM-NH2; SMILES CSCC[C@H](NC(=O)[C@H](CC(C)C)NC(=O)CCNC(=O)[C@H](C(C)C)N(C)C(=O)[C@@H](Cc1c[nH]c2ccccc12)NC(=O)[C@H](CO)NC(=O)[C@H](CC(=O)O)NC(=O)CCC(=O)O)C(N)=O) [AN6]”, in series [1] (setting [3]), the female fillet ratio result is reported as “+3.38%” and the male fillet ratio entry was “+5.6%”. In addition, in series [1] (in vivo), the “gonad size and histology” value is “No significant effect”; the “kidney, liver and fat weight and rates” value is reported as “no effect”. Moreover, in series [2], the FCR result is reported as “improved FCR significantly” and the growth result is listed as “not sufficient to improved growth”.
